The nature of assay [1]: Inhibition of quorum sensing system in Pseudomonas aeruginosa PAO1 harboring mini-ctx-lasB-lacZ at 10 uM measured after 16 hrs by ONPG test relative to control.
Assay [2] has as its system Pseudomonas aeruginosa. In words: Antibacterial activity against Pseudomonas aeruginosa PAO1 incubated for 24 hrs by absorbance based assay. The format is functional.
The subject of assay [3] is Pseudomonas aeruginosa. The assay can be described thus: Antibiofilm activity against Pseudomonas aeruginosa PAO1 harboring wspF mutant assessed as inhibition rate at 1.25 uM incubated for 24 hrs by absorbance based assay relative to control. The format is functional.
In assay [4] the test system is Pseudomonas aeruginosa. In words: Antibiofilm activity against Pseudomonas aeruginosa PAO1 harboring wspF mutant assessed as inhibition rate at 10 uM incubated for 24 hrs by absorbance based assay relative to control. The format is functional.

Some results are limits rather than exact numbers.

For orientation: inhibition means the percentage by which the read-out fell short of the control. One may read the MIC as the least concentration at which growth counts as inhibited. Low values mean inhibition by little substance, high ones a need for much substance. In assay [1], `C[n+]1c(/C=C/c2ccc3ccc(=O)oc3c2)ccc2ccccc21` showed an inhibition of 2.74%. In assay [2], this compound had an MIC of over 128 µM.

`C[n+]1c(/C=C/c2cccc3c2CCO3)ccc2ccccc21`: in assay [1], the inhibition was determined as 9.4%. This compound gave an MIC in assay [2] of over 128 µM.

In turn, `C[n+]1c(/C=C/c2c[nH]c3cc(Cl)ccc23)ccc2ccccc21` showed an inhibition in assay [1] of 3.02%. For the same compound, in assay [2], the MIC was over 128 µM.

As to `C[n+]1c(/C=C/c2cc3ccccc3[nH]2)ccc2ccccc21`, the inhibition in assay [1] amounted to 1.42%. In addition, the MIC in assay [2] is over 128 µM.

The compound `C[n+]1c(/C=C/c2ccc3nc[nH]c3c2)sc2ccccc21` came in with an inhibition in assay [1] of 3.2%. Also, the MIC in assay [2] is over 128 µM.

In assay [1], `C[n+]1c(/C=C/c2c[nH]c3cc(F)ccc23)ccc2ccccc21` gave an inhibition of 9.14%. This compound also returned a minimum inhibitory concentration (MIC) in assay [2] of over 128 µM. Also, the inhibition at 1.25 µM in assay [3] was about 21%.

`C[n+]1c(/C=C/c2c[nH]c3cc(Br)ccc23)ccc2ccccc21`: the inhibition in assay [1] turned out to be 0.5%. In assay [2], this compound yielded an MIC of over 128 µM. In addition, the inhibition at 1.25 µM in assay [3] is about 21%.

The compound `C[n+]1c(/C=C/c2c[nH]c3ccc(O)cc23)ccc2ccccc21` gave an inhibition in assay [1] of 7.32%. In assay [2], this compound had an MIC of over 128 µM.

Turning to `COc1ccc2[nH]cc(/C=C/c3ccc4ccccc4[n+]3C)c2c1`, the inhibition in assay [1] was found to be 16.6%. This compound returned an MIC in assay [2] of over 128 µM. In assay [3], the inhibition at 1.25 µM is about 21%.

Compound `C[n+]1c(/C=C/c2coc3ccccc3c2=O)sc2ccccc21` gave an inhibition in assay [1] of 7.3%. The minimal inhibitory concentration (MIC) in assay [2] was over 128 µM.

Take `C[n+]1c(/C=C/c2coc3ccccc3c2=O)ccc2ccccc21`: the inhibition in assay [1] was 1.21%. Moreover, the MIC in assay [2] was over 128 µM.

`C[n+]1c(/C=C/c2c[nH]c3ccc(Br)cc23)ccc2ccccc21` showed an inhibition in assay [1] of 2.52%. In assay [2], this compound showed an MIC of over 128 µM.

In assay [1], `Cc1cc(=O)c(O)c(/C=C/c2ccc3ccccc3[n+]2C)o1` showed an inhibition of 4.86%. Further, in assay [2], the MIC was over 128 µM.

Regarding `COc1ccc2c(/C=C/c3ccc4ccccc4[n+]3C)c[nH]c2c1`, in assay [1], the inhibition turned out to be 17.9%. This compound also yielded a minimum inhibitory concentration (MIC) in assay [2] of over 128 µM. The inhibition at 1.25 µM in assay [3] was about 21%.

In turn, `Cc1ccc2[nH]cc(/C=C/c3ccc4ccccc4[n+]3C)c2c1` gave an inhibition in assay [1] of 17%. In assay [2], this compound displayed an MIC of over 128 µM. The inhibition at 1.25 µM in assay [3] is about 21%.

As for `C[n+]1c(/C=C/c2cscn2)ccc2ccccc21`, the inhibition in assay [1] was 4.55%. The MIC in assay [2] was over 128 µM.

The compound `Cc1cc(=O)c(O)c(/C=C/c2sc3ccccc3[n+]2C)o1` came in with an inhibition in assay [1] of 7.78%. The MIC in assay [2] was over 128 µM.

In assay [1], `C[n+]1c(/C=C/c2cccc3ocnc23)ccc2ccccc21` showed an inhibition of 2.91%. This compound also registered an MIC in assay [2] of over 128 µM.

For the compound `C[n+]1c(/C=C/c2cc(=O)c(O)co2)sc2ccccc21`, the inhibition in assay [1] was determined as 4.1%. The compound further came in with a minimal inhibitory concentration (MIC) in assay [2] of over 128 µM.

For `C[n+]1c(/C=C/c2ccc3nc[nH]c3c2)ccc2ccccc21`, the inhibition in assay [1] came out at 1.69%. In assay [2], this compound displayed an MIC of over 128 µM.

In turn, `C[n+]1c(/C=C/c2c[nH]c3ccc([N+](=O)[O-])cc23)ccc2ccccc21` showed an inhibition in assay [1] of 4.62%. The compound also had an MIC in assay [2] of over 128 µM.

In turn, `C[n+]1c(/C=C/c2cc3ccccc3[nH]2)sc2ccccc21` had an inhibition in assay [1] of 2.23%. The compound further registered an MIC in assay [2] of over 128 µM.

For the compound `C[n+]1c(/C=C/c2c[nH]c3ccccc23)sc2ccccc21`, the inhibition in assay [1] turned out to be 20.9%. In addition, the MIC in assay [2] is over 128 µM. In addition, the inhibition at 1.25 µM in assay [3] is about 21%.

For `C[n+]1c(/C=C/c2cc(=O)c(O)co2)ccc2ccccc21`, the inhibition in assay [1] was 0.45%. The MIC in assay [2] was over 128 µM.

In turn, `C[n+]1c(/C=C/c2ccc3ccc(=O)oc3c2)sc2ccccc21` had an inhibition in assay [1] of 2.42%. Further, the MIC in assay [2] is over 128 µM.

With `C[n+]1c(/C=C/c2ccc3c(c2)CCO3)sc2ccccc21`, in assay [1], the inhibition was 3.6%. The minimal inhibitory concentration (MIC) in assay [2] is over 128 µM.

Turning to `CC[C@H]1OC(=O)[C@H](C)[C@@H](O[C@H]2C[C@@](C)(OC)[C@@H](O)[C@H](C)O2)[C@H](C)[C@@H](O[C@@H]2O[C@H](C)C[C@H](N(C)C)[C@H]2O)[C@](C)(O)C[C@@H](C)CN(C)[C@H](C)[C@@H](O)[C@]1(C)O` [AZITHROMYCIN], the inhibition at 10 µM in assay [4] was 43.9%.

In assay [1], `C[n+]1c(/C=C/c2ccc3ocnc3c2)sc2ccccc21` registered an inhibition of 1.14%. Further, in assay [2], the MIC was over 128 µM.

In turn, `C[n+]1c(/C=C/c2c[nH]c3ccc(Cl)cc23)ccc2ccccc21` registered an inhibition in assay [1] of 4.53%. The compound also had an MIC in assay [2] of over 128 µM.

Compound `Cc1ccc2c(/C=C/c3ccc4ccccc4[n+]3C)c[nH]c2c1` yielded an inhibition in assay [1] of 16.2%. The compound also displayed a minimum inhibitory concentration (MIC) in assay [2] of over 128 µM. Besides, the inhibition at 1.25 µM in assay [3] was about 21%.

In assay [1], `C[n+]1c(/C=C/c2cscn2)sc2ccccc21` displayed an inhibition of 3.65%. Besides, the MIC in assay [2] is over 128 µM.

Source of the values: ChEMBL document CHEMBL6078637, “Cyclic Diguanylate G-Quadruplex Inducer-Quorum Sensing Inhibitor Hybrids as Bifunctional Anti-biofilm and Anti-virulence Agents Against Pseudomonas aeruginosa” (J Med Chem, 2024).
